Where two headings read alike, the source gives them in different places.
How the values were obtained:
[1] = test system: PC3; assay: Cytotoxic activity, sub-diploid DNA content by flow cytometry (propidium iodide); format: cell-based, human; settings: Homo sapiens
Protocol: (§1) (b) Compound A was assessed for cytotoxic and cytostatic activity against a panel of cell lines derived from a variety of human tumour types in addition to THP-1 and A549 cells (Table 5). These included K562 leukemic cells (Lozzio and Lozzio, 1975, Blood 45:321-34), PC3 prostate tumour cells (Kaighn et al., 1979, Invest. Urol. 17:16-23) and SF268 glioblastoma cells (Westphal et al, 1985, Biochem. Biophys. Res. Commun., 132:284-9). […] However, the cytotoxic potency of Compound A increased dramatically after 6 days of culture for the K562, A549 and SF268 cells.

[2] = test system: K562; assay: as above; format: cell-based, human
Protocol: as §1

[3] = test system: SF268; assay: as above; format: cell-based, human; settings: Homo sapiens, SF-268, 72 h, SF268, 3 days; read-out: LC50 (3 day cultures)
Protocol: as §1

[4] = test system: A549; assay: as above; format: cell-based, human
Protocol: as §1

[5] = test system: THP-1; assay: as above; format: cell-based, human; settings: Homo sapiens, THP-1, 72 h, THP-1, 3 days; read-out: LC50 (3 day cultures)
Protocol: as §1

[6] = test system: A549 cells; assay: DNA content analysis (cell cycle and viability) of A549 cells, 6 days; format: cell-based, human; settings: A549, 10 nM
Protocol: A549 cells were cultured for 6 days with the indicated concentration of Compound A or 1 μM paclitaxel then collected and fixed in 70% ethanol prior to staining with propidium iodide and DNA content determined by flow cytometry. The numbers indicate the % of cells in the various cell cycle phases relative to all cells with ≧2N DNA content and also the % dead cells (ie. subdiploid≦2N cells) to the left of the marker that arose during the culture period.
To help identify a potential mechanism for the effects of Compound A, DNA content analysis was performed to determine where in the cell cycle it exerted its effect (FIG. 4). […] This contrasts to the effects of paclitaxel a drug known to act selectively at the G2/M phases of the cell cycle (FIG. 4). As the concentration of Compound A was increased and its cytotoxic effects became evident the proportion of cells in the S and G2/M phases decreased with a corresponding rise in cells in G0/G1 phases. […] Thus, compared to THP-1 cells (see FIG. 2) higher concentrations of Compound A are required to inhibit progression through the G0/G1 phases of the cell cycle in A549 cells.

[7] = test system: A549 cells; assay: Relative cell size by forward light scatter (flow cytometry); format: cell-based, human; settings: for % increase in mean cell volume: six days
Protocol: It is well known that cell proliferation and cell growth reflected as increased mass of individual cells are biochemically separable processes (Pardee, Science, 1989, 246:603-8). Although at certain concentrations Compound A can inhibit cell proliferation without overt cytotoxicity it was also evaluated whether Compound A also affected cell growth. For these experiments A549 cells were treated with various non-cytotoxic doses of Compound A up to 10 nM and the relative cell size determined after 6 days of culture by measuring forward light scatter using a flow cytometer. […] This occurred only at concentrations which are cytostatic for this cell type.

[8] = test system: PC3; assay: Cytostatic activity, relative cell number by YOYO-1 DNA dye; format: cell-based; settings: Homo sapiens, PC-3, 72 h; PC3, prostate; read-out: GI50 (3 day cultures)
Protocol: as §1

[9] = test system: K562; assay: as above; format: cell-based; settings: Homo sapiens, 72 h; K562, leukemia; read-out: GI50 (3 day cultures)
Protocol: as §1

[10] = test system: SF268; assay: as above; format: cell-based; settings: Homo sapiens, SF-268, 72 h; SF268, brain; read-out: GI50 (3 day cultures)
Protocol: as §1

[11] = test system: Intercellular Adhesion Molecule-1 (ICAM-1); assay: IL-1-induced ICAM-1 surface expression by A549 cells (Delfia); format: cell-based, human; settings: 24 hours, read-out: IC50 ICAM-1 Production
Text: (§2) (a) Compounds A and B were identified from a bark sample of Aglaia leptantha through their ability to inhibit production of Tumour Necrosis Factor-α (TNF-α) by THP-1 human promonocytic leukemia cells (Tsuchiya, et al, Int. J. Cancer, 1980, 26(2):171-6) activated with lipopolysaccharide (LPS). Table 4 summarises the results comparing the activity of Compounds A and B for inhibition of TNF-α production to their effects on general cell metabolism measured using WST-1 reduction, DNA synthesis and protein synthesis assays for THP-1 cells. […] For comparison, the effects of Compounds A and B on A549 lung epithelial carcinoma cells (Leiber et al, Int. J. Cancer, 1976, 17(1)-62-70) were also measured and the data is also included in Table 4.

[12] = test system: Tumour Necrosis Factor-α (TNF-α); assay: Inhibition of TNF-α production by LPS-activated THP-1 cells (sandwich ELISA); format: cell-based, human; settings: 18 hours
Text: as §2

[13] = test system: A549 cells; assay: Acute general protein biosynthesis inhibition, [14C] leucine incorporation, A549 cells; format: cell-based, human; settings: 1 hour pretreatment + 2 hours label, read-out: IC50 Protein synthesis
[14] = test system: A549 cells; assay: Protein synthesis, [14C]-leucine uptake, A549 cells; format: cell-based, human; settings: Homo sapiens, A549, 72 h
Text: as §2

[15] = test system: THP-1 cells; assay: Protein synthesis, [14C]-leucine uptake, THP-1 cells; format: cell-based, human; settings: 48 hours
Text: as §2

[16] = Body weight in the mouse xenograft tumour model; format: in vivo
Protocol: The ability of Compound A to inhibit growth of human tumour cells in vivo was assessed using male athymic mice injected subcutaneously in the dorsal flank region with 2×10^6 PC3 human prostate tumour cells. Compound A administration (3 mg/kg) by intraperitoneal injection commenced after eight days once the PC3 tumour was palpable and continued three times a week until 29 days after the initial inoculation of the tumour cells. At this time all mice were killed and tumours excised and weighed.

In the case of `COC(=O)[C@H]1[C@@H](O)[C@@]2(O)c3c(OC)cc(OC4OC(C(O)CO)COC4OC)cc3O[C@@]2(c2ccc(OC)cc2)[C@@H]1c1ccccc1` (single isomer, unassigned) [Compound A], the CC50 ([1]; PC-3, 72 h, PC3, 3 days, read-out: LC50 (3 day cultures)) is reported as 0.018 µM, the CC50 ([1]; PC-3, 144 h, PC3, 6 days, read-out: LC50 (6 day cultures)) is reported as 0.012 µM and the CC50 ([2]; Homo sapiens, K562, 72 h, K562, 3 days, read-out: LC50 (3 day cultures)) is reported as > 1 µM. The CC50 ([2]; Homo sapiens, K562, 144 h, K562, 6 days, read-out: LC50 (6 day cultures)) was 0.01 µM, the CC50 ([2]; K562, 6 days, read-out: LC50 (6 day cultures)) was 0.012 µM and the CC50 [3] was 0.461 µM. It also gave a CC50 ([4]; A549, 6 days, read-out: LC50 (6 day cultures)) of 0.015 µM, a CC50 ([4]; Homo sapiens, A549, 72 h, A549, 3 days, read-out: LC50 (3 day cultures)) of 0.914 µM and a CC50 ([4]; Homo sapiens, A549, 144 h, A549, 6 days, read-out: LC50 (6 day cultures)) of 0.021 µM. For the same compound, the CC50 [5] was 0.036 µM, the cell cycle distribution [6] was “a minor decline in the proportion of cells in the G0/G1 phases of the cell cycle with a concomitant increase in cells in the G2/M phases” and the “% increase in mean cell volume” value ([7]; A549, 2.5 nM) was 10.4%. The “% increase in mean cell volume” value ([7]; A549, 5.0 nM) was 10.7%, the “% increase in mean cell volume” value ([7]; A549, 10.0 nM) was 22.4% and the “increase in the mean forward scatter” value ([7]; A549, non-cytotoxic doses up to 10 nM, 6 days) was “over 20%”. For the same compound, the GI50 [8] was 0.005 µM, the GI50 [9] was 0.001 µM and the GI50 [10] was 0.003 µM. The IC50 [11] was 2 µM, the IC50 [12] was 0.06 µM and the IC50 ([13]; A549 cells) was 0.032 µM. For the same compound, the IC50 ([13]; Homo sapiens, A549, A549 cells) was ~0.03 µM, the IC50 [14] was 0.02 µM and the IC50 [15] was 0.06 µM. The body weight ([16]; 3 mg/kg intraperitoneal three times a week, vs control) was “unaffected” and the “decrease in mean body weight” value ([16]; over the duration of the experiment, similar in control group) was ~12%.

Source: patent publication US6710075B2, “Therapeutic compounds and methods” (The Government of the State of Sarawak, Malaysia, priority 2000, dated 2004)
